{"source": "patent US9326506B2", "about": "“Preparation method, agricultural composition and applications of natural brassinolide analogs” (CHENGDU NEWSUN CROPSCIENCE CO., LTD, priority 2012, dated 2016)", "test_system": "rice", "experiment": "Low temperature assay on rice seedlings", "assay_type": "in vivo", "protocol": "According to a low temperature assay, we measured parameters including plant height, number of leaf, area of leaf, number of tiller, weight of root at low temperature to completely determine effects of the natural brassinolide analogues on the resistance to low temperature of a plant.\nThe natural brassinolide analogues, BR1, BR2, BR3, BR4, BR5 and BR6, used herein, were those prepared by the method of Example 1. Respectively the analogues were dissolved into 95% (V/V) ethanol solution, and then diluted with pure water to 1 mg/L, 0.1 mg/L, 0.01 mg/L, 0.001 mg/L and 0.0001 mg/L. In addition, pure water was used as a control.\nAfter rice seeds were disinfected by using 5% sodium hypochlorite solution treatment, they were rinsed with distilled water until their pH>7, placed into a petri dish in a dark incubator, and cultured by using water at 30° C.±2° C. for 9 days. Then respectively the nine-day-old etiolated seedlings of rice were immersed in the above solutions containing different concentrations of the natural brassinolide analogues or pure water, and cultured at the temperature of 1° C., 2° C., 3° C., 4° C. and 5° C. for 24 hr. The parameters including plant height, area of leaf and weight of root after 3, 6, 9 and 12 days and number of leaf and number of tiller after 12 days were measured."}
{"smiles": "CC[C@@H](C(C)C)[C@@H](O)[C@H](O)[C@@H](C)[C@H]1CCC2C3COC(=O)C4C[C@H](O)[C@H](O)C[C@]4(C)C3CC[C@@]21C", "note": "(stereo partly drawn) [BR2]", "values": [{"measurement": "Area of leaf", "setting": "0.0001 mg/l, 1 °C, 3 days", "value": 9.8, "unit": "cm^2"}, {"measurement": "Height", "setting": "0.0001 mg/l, 1 °C, 3 days", "value": 6.8, "unit": "cm"}, {"measurement": "Weight of root", "setting": "0.0001 mg/l, 1 °C, 3 days", "value": 2.8, "unit": "g"}, {"measurement": "Area of leaf", "setting": "0.0001 mg/l, 1 °C, 6 days", "value": 11.2, "unit": "cm^2"}, {"measurement": "Height", "setting": "0.0001 mg/l, 1 °C, 6 days", "value": 6.9, "unit": "cm"}, {"measurement": "Weight of root", "setting": "0.0001 mg/l, 1 °C, 6 days", "value": 3.1, "unit": "g"}, {"measurement": "Area of leaf", "setting": "0.0001 mg/l, 1 °C, 9 days", "value": 12.4, "unit": "cm^2"}, {"measurement": "Height", "setting": "0.0001 mg/l, 1 °C, 9 days", "value": 7, "unit": "cm"}, {"measurement": "Weight of root", "setting": "0.0001 mg/l, 1 °C, 9 days", "value": 3.4, "unit": "g"}, {"measurement": "Area of leaf", "setting": "0.0001 mg/l, 1 °C, 12 days", "value": 13.1, "unit": "cm^2"}, {"measurement": "Height", "setting": "0.0001 mg/l, 1 °C, 12 days", "value": 7.2, "unit": "cm"}, {"measurement": "Number of leaf", "setting": "0.0001 mg/l, 1 °C, 12 days", "value": 3}, {"measurement": "Number of tiller", "setting": "0.0001 mg/l, 1 °C, 12 days", "value": 3}, {"measurement": "Weight of root", "setting": "0.0001 mg/l, 1 °C, 12 days", "value": 3.9, "unit": "g"}, {"measurement": "Area of leaf", "setting": "0.0001 mg/l, 2 °C, 3 days", "value": 10, "unit": "cm^2"}, {"measurement": "Height", "setting": "0.0001 mg/l, 2 °C, 3 days", "value": 6.8, "unit": "cm"}, {"measurement": "Weight of root", "setting": "0.0001 mg/l, 2 °C, 3 days", "value": 2.8, "unit": "g"}, {"measurement": "Area of leaf", "setting": "0.0001 mg/l, 2 °C, 6 days", "value": 11.7, "unit": "cm^2"}, {"measurement": "Height", "setting": "0.0001 mg/l, 2 °C, 6 days", "value": 7, "unit": "cm"}, {"measurement": "Weight of root", "setting": "0.0001 mg/l, 2 °C, 6 days", "value": 3.0, "unit": "g"}, {"measurement": "Area of leaf", "setting": "0.0001 mg/l, 2 °C, 9 days", "value": 12.4, "unit": "cm^2"}, {"measurement": "Height", "setting": "0.0001 mg/l, 2 °C, 9 days", "value": 7.1, "unit": "cm"}, {"measurement": "Weight of root", "setting": "0.0001 mg/l, 2 °C, 9 days", "value": 3.2, "unit": "g"}, {"measurement": "Area of leaf", "setting": "0.0001 mg/l, 2 °C, 12 days", "value": 13, "unit": "cm^2"}, {"measurement": "Height", "setting": "0.0001 mg/l, 2 °C, 12 days", "value": 7.4, "unit": "cm"}, {"measurement": "Number of leaf", "setting": "0.0001 mg/l, 2 °C, 12 days", "value": 3}, {"measurement": "Number of tiller", "setting": "0.0001 mg/l, 2 °C, 12 days", "value": 3}, {"measurement": "Weight of root", "setting": "0.0001 mg/l, 2 °C, 12 days", "value": 3.9, "unit": "g"}, {"measurement": "Area of leaf", "setting": "0.0001 mg/l, 3 °C, 3 days", "value": 10, "unit": "cm^2"}, {"measurement": "Height", "setting": "0.0001 mg/l, 3 °C, 3 days", "value": 6.9, "unit": "cm"}, {"measurement": "Weight of root", "setting": "0.0001 mg/l, 3 °C, 3 days", "value": 2.5, "unit": "g"}, {"measurement": "Area of leaf", "setting": "0.0001 mg/l, 3 °C, 6 days", "value": 11.8, "unit": "cm^2"}, {"measurement": "Height", "setting": "0.0001 mg/l, 3 °C, 6 days", "value": 7.2, "unit": "cm"}, {"measurement": "Weight of root", "setting": "0.0001 mg/l, 3 °C, 6 days", "value": 2.6, "unit": "g"}, {"measurement": "Area of leaf", "setting": "0.0001 mg/l, 3 °C, 9 days", "value": 12.3, "unit": "cm^2"}, {"measurement": "Height", "setting": "0.0001 mg/l, 3 °C, 9 days", "value": 7.4, "unit": "cm"}, {"measurement": "Weight of root", "setting": "0.0001 mg/l, 3 °C, 9 days", "value": 2.9, "unit": "g"}, {"measurement": "Area of leaf", "setting": "0.0001 mg/l, 3 °C, 12 days", "value": 13.2, "unit": "cm^2"}, {"measurement": "Height", "setting": "0.0001 mg/l, 3 °C, 12 days", "value": 7.5, "unit": "cm"}, {"measurement": "Number of leaf", "setting": "0.0001 mg/l, 3 °C, 12 days", "value": 3}, {"measurement": "Number of tiller", "setting": "0.0001 mg/l, 3 °C, 12 days", "value": 2}, {"measurement": "Weight of root", "setting": "0.0001 mg/l, 3 °C, 12 days", "value": 2.9, "unit": "g"}, {"measurement": "Area of leaf", "setting": "0.0001 mg/l, 4 °C, 3 days", "value": 10, "unit": "cm^2"}, {"measurement": "Height", "setting": "0.0001 mg/l, 4 °C, 3 days", "value": 6.9, "unit": "cm"}, {"measurement": "Weight of root", "setting": "0.0001 mg/l, 4 °C, 3 days", "value": 2.5, "unit": "g"}, {"measurement": "Area of leaf", "setting": "0.0001 mg/l, 4 °C, 6 days", "value": 11.7, "unit": "cm^2"}, {"measurement": "Height", "setting": "0.0001 mg/l, 4 °C, 6 days", "value": 7.3, "unit": "cm"}, {"measurement": "Weight of root", "setting": "0.0001 mg/l, 4 °C, 6 days", "value": 2.6, "unit": "g"}, {"measurement": "Area of leaf", "setting": "0.0001 mg/l, 4 °C, 9 days", "value": 13, "unit": "cm^2"}, {"measurement": "Height", "setting": "0.0001 mg/l, 4 °C, 9 days", "value": 7.5, "unit": "cm"}, {"measurement": "Weight of root", "setting": "0.0001 mg/l, 4 °C, 9 days", "value": 2.9, "unit": "g"}, {"measurement": "Area of leaf", "setting": "0.0001 mg/l, 4 °C, 12 days", "value": 13.4, "unit": "cm^2"}, {"measurement": "Height", "setting": "0.0001 mg/l, 4 °C, 12 days", "value": 7.6, "unit": "cm"}, {"measurement": "Number of leaf", "setting": "0.0001 mg/l, 4 °C, 12 days", "value": 3}, {"measurement": "Number of tiller", "setting": "0.0001 mg/l, 4 °C, 12 days", "value": 2}, {"measurement": "Weight of root", "setting": "0.0001 mg/l, 4 °C, 12 days", "value": 2.9, "unit": "g"}, {"measurement": "Area of leaf", "setting": "0.0001 mg/l, 5 °C, 3 days", "value": 10.2, "unit": "cm^2"}, {"measurement": "Height", "setting": "0.0001 mg/l, 5 °C, 3 days", "value": 7.0, "unit": "cm"}, {"measurement": "Weight of root", "setting": "0.0001 mg/l, 5 °C, 3 days", "value": 2.5, "unit": "g"}, {"measurement": "Area of leaf", "setting": "0.0001 mg/l, 5 °C, 6 days", "value": 12, "unit": "cm^2"}, {"measurement": "Height", "setting": "0.0001 mg/l, 5 °C, 6 days", "value": 7.4, "unit": "cm"}, {"measurement": "Weight of root", "setting": "0.0001 mg/l, 5 °C, 6 days", "value": 2.7, "unit": "g"}, {"measurement": "Area of leaf", "setting": "0.0001 mg/l, 5 °C, 9 days", "value": 13.6, "unit": "cm^2"}, {"measurement": "Height", "setting": "0.0001 mg/l, 5 °C, 9 days", "value": 7.5, "unit": "cm"}, {"measurement": "Weight of root", "setting": "0.0001 mg/l, 5 °C, 9 days", "value": 2.9, "unit": "g"}, {"measurement": "Area of leaf", "setting": "0.0001 mg/l, 5 °C, 12 days", "value": 14, "unit": "cm^2"}, {"measurement": "Height", "setting": "0.0001 mg/l, 5 °C, 12 days", "value": 7.7, "unit": "cm"}, {"measurement": "Number of leaf", "setting": "0.0001 mg/l, 5 °C, 12 days", "value": 3}, {"measurement": "Number of tiller", "setting": "0.0001 mg/l, 5 °C, 12 days", "value": 2}, {"measurement": "Weight of root", "setting": "0.0001 mg/l, 5 °C, 12 days", "value": 3.0, "unit": "g"}, {"measurement": "Area of leaf", "setting": "0.001 mg/l, 1 °C, 3 days", "value": 10.1, "unit": "cm^2"}, {"measurement": "Height", "setting": "0.001 mg/l, 1 °C, 3 days", "value": 6.9, "unit": "cm"}, {"measurement": "Weight of root", "setting": "0.001 mg/l, 1 °C, 3 days", "value": 2.8, "unit": "g"}, {"measurement": "Area of leaf", "setting": "0.001 mg/l, 1 °C, 6 days", "value": 11.3, "unit": "cm^2"}, {"measurement": "Height", "setting": "0.001 mg/l, 1 °C, 6 days", "value": 7.1, "unit": "cm"}, {"measurement": "Weight of root", "setting": "0.001 mg/l, 1 °C, 6 days", "value": 3.1, "unit": "g"}, {"measurement": "Area of leaf", "setting": "0.001 mg/l, 1 °C, 9 days", "value": 12.6, "unit": "cm^2"}, {"measurement": "Height", "setting": "0.001 mg/l, 1 °C, 9 days", "value": 7.1, "unit": "cm"}, {"measurement": "Weight of root", "setting": "0.001 mg/l, 1 °C, 9 days", "value": 3.4, "unit": "g"}, {"measurement": "Area of leaf", "setting": "0.001 mg/l, 1 °C, 12 days", "value": 13, "unit": "cm^2"}, {"measurement": "Height", "setting": "0.001 mg/l, 1 °C, 12 days", "value": 7.3, "unit": "cm"}, {"measurement": "Number of leaf", "setting": "0.001 mg/l, 1 °C, 12 days", "value": 3}, {"measurement": "Number of tiller", "setting": "0.001 mg/l, 1 °C, 12 days", "value": 3}, {"measurement": "Weight of root", "setting": "0.001 mg/l, 1 °C, 12 days", "value": 3.9, "unit": "g"}, {"measurement": "Area of leaf", "setting": "0.001 mg/l, 2 °C, 3 days", "value": 9.8, "unit": "cm^2"}, {"measurement": "Height", "setting": "0.001 mg/l, 2 °C, 3 days", "value": 6.9, "unit": "cm"}, {"measurement": "Weight of root", "setting": "0.001 mg/l, 2 °C, 3 days", "value": 2.8, "unit": "g"}]}
